Experiments:
BRCEC = assay: MTT cell proliferation assay, BRCEC; assay type: cell-based, bovine; conditions: Bos taurus, 72 h, treated 3 days, read-out: IC50, inhibition of proliferation of BRCEC
Excerpt: (§1) Cell culture: All cell culture media and supplements were purchased from Cellgro unless otherwise indicated. Human Umbilical Vein Endothelial Cells (HUVEC) were obtained from American Type Culture Collection and grown in the EBM-MV2 medium (Clonetics). Bovine Retinal Endothelial Cells (BREC) and pericytes were isolated according to a modified method as described previously (Wong, et al. Investig. Opthalmol. Vis. Sci. 1987, 28: 1767-1775). Twelve bovine eyes were obtained from a local slaughterhouse (Country Home Meats). The retinas were removed and washed four times in DMEM. Subsequently retinas were homogenized and centrifuged at 400×g for 10 min. The resultant pellet was resuspended in an isolation medium (DMEM with 100 IU/ml penicillin, 100 μg/ml streptomycin and 250 ng/ml amphotericin). Microvessels were trapped on an 85 μm nylon mesh (Locker Wire Weavers LTD) and transferred to a petri dish (Falcon) containing 10 ml of an enzyme cocktail which consisted of 600 μg/ml DNase I (Sigma), 165 μg/ml collagenase (Sigma) and 700 μg/ml Pronase E (EMD) and were incubated at 37° C. for 20 min. The resultant vessel fragments were trapped on a 53 μm nylon mesh (Locker Wire Weavers LTD), washed with the isolation medium and centrifuged at 400×g for 5 min. For selective culture of pericytes, the resultant pellet was resuspended in 10 ml of the pericyte growth medium and transferred into 75-cm^2 plastic tissue culture flasks (BD Biosciences). For selective culture of BRCECs, the resultant pellet was resuspended in 10 ml of the BRCEC growth medium and transferred into 75-cm^2 collagen-coated plastic tissue culture flasks (BD Biosciences). The BRCEC growth medium consisted of DMEM supplemented with 10% human serum, 1% glutamine, 1 mg/ml insulin, 550 μg/ml transferring, 670 ng/ml selenium, 100 IU/ml penicillin, 100 μg/ml streptomycin, 250 ng/ml amphotericin, 90 μg/ml heparin (Sigma) and 15 μg/ml endothelial cell growth supplement (Upstate). Cells were cultured at 37° C. and 5% CO2 with regular medium change every 3 days. Confluence cultures were passaged by detaching the cells with 0.25% trypsin and plated at a split 1:3. […] At passage 2, BRCECs and pericytes were stored in a liquid nitrogen tank for future use.
MTT assay: Cells were seeded at a density of 5×10^4 cells per well in 400 μl of growth medium in triplicate in 24-well plates (Nalge Nunc) or gelatin-coated 24-well plates. […] The absorbance of the formazen product was measured at a wavelength of 570 nm, with 750 nm as the (subtracted) reference wavelength.
Primary endothelial cells (HUVEC and BRCEC) and pericytes were treated with various concentrations of the compounds for 3 days. Viable cells were quantified using MTT assay and IC50 of each compound was calculated (mean±SD, n=3, FIG. 1). […]

HUVEC [1] = assay: MTT cell proliferation assay, HUVEC; assay type: cell-based; conditions: Homo sapiens, 72 h, treated 3 days, read-out: IC50, inhibition of proliferation of HUVEC
Excerpt: as §1
MTT assay: Cells were seeded at a density of 5×10^4 cells per well in 400 μl of growth medium in triplicate in 24-well plates (Nalge Nunc) or gelatin-coated 24-well plates. Twenty-four hours after seeding, the growth medium was replaced by a medium containing 1% FBS, with or without different concentrations of thalidomide or phenylphthalimide analogs. After the cells were treated for 48-72 h, MTT was added to a final concentration of 0.5 mg of medium per ml and incubated for 4 h at 37° C. in 5% CO2. An equal volume of solubilizer buffer is then added, following the protocol recommended by the manufacturer (Roche Molecular Biochemicals), the cells will be incubated overnight at 37° C. in 5% CO2. The absorbance of the formazen product was measured at a wavelength of 570 nm, with 750 nm as the (subtracted) reference wavelength.
Primary endothelial cells (HUVEC and BRCEC) and pericytes were treated with various concentrations of the compounds for 3 days. Viable cells were quantified using MTT assay and IC50 of each compound was calculated (mean±SD, n=3, FIG. 1). The IC50 values represent the means and SE of 3 independent experiments.

HUVEC [2] = assay: Endothelial cell migration (invasion) assay; assay type: cell-based; conditions: Homo sapiens, VEGF 4 ng/ml, invasion through Matrigel, read-out: IC50, inhibition of HUVEC migration
Method: Cells were allowed to invade for 22±1 hours. Cells were labeled post invasion with Calcein AM (4 μg/ml) and measured by detecting the fluorescence of cells that invaded through the BD Matrigel™ Matrix with an Applied Biosystems CytoFluor® 4000 plate reader at 485 nm excitation and 530 nm emission.
In this assay system, human endothelial cells are allowed to invade and are then labeled with fluorescent dye Calcein AM before quantification on a fluorometer.
In FIG. 2B, cells were seeded at 5×10^4/insert in EBM-2 containing 0.1% BSA in multi-well inserts. The assembled assays were allowed to proceed for 6 hours. The results are expressed as percent inhibition of migration as compared to control (no inhibitor). Data represents the average of 3 experiments, each run in triplicate. The bars represent mean±SD.

STZ-diabetic rats = assay: Retinal vascular leakage in STZ-diabetic rats, intravitreal injection; assay type: in vivo, rat; conditions: single intravitreal 1.0 μg/eye (5 μl 0.8 mM), 48 h
Method: Induction of diabetes by streptozotocin (STZ): BN rats (8 weeks of age) were given a single intraperitoneal injection of fresh made streptozotocin (STZ) (Sigma, 50 mg/kg in 10 mM of citrate buffer, pH 4.5) following an overnight fasting. Control rats received an injection of citrate buffer alone. Blood glucose levels were checked at 24 hours following the last STZ injection and once a week thereafter, and only the animals with glucose levels higher than 350 mg/dl were considered diabetic. Rats with hyperglycemia for 2 weeks were used for these experiments.
Intravitreal injection of compounds: Thalidomide and the phenylphthalimide analogs Compounds 1, 2 and Compound 4 were dissolved in vehicle (BN rat serum) and sterilized by filtration. OIR and STZ-diabetic BN rats received an intravitreal injection of 0.5-2.0 μg/eye of (5 μl/eye, 0.1-0.4 mg/ml in BN rat serum) of thalidomide, Compounds 1, 2 or Compound 4 into the right eye and the equal volume of the BN rat serum into the left eye.
Evans blue dye (Sigma) was dissolved in 0.9% saline (30 mg/ml), sonicated for 5 min and filtered through a 0.45-μm filter (Millipore). The rats were then anesthetized, and Evans blue (30 mg/kg) was injected over 10 s through the femoral vein using a glass capillary under microscopic inspection. Evans blue non-covalently binds to plasma albumin in the blood stream. Immediately after Evans blue infusion, the rats turned visibly blue, confirming their uptake and distribution of the dye. The rats were kept on a warm pad for 2 h to ensure the complete circulation of the dye. Then the chest cavity was opened, and the rats were perfused via the left ventricle with 1% paraformaldehyde in citrate buffer (pH 4.2) which was pre-warmed to 37° C. to prevent vasoconstriction. The perfusion lasted 10 min under the physiological pressure of 120 mmHg, in order to clear the dye from the vessel. Immediately after perfusion, the eyes were enucleated and the retinas were carefully dissected under an operating microscope. Evans blue dye was extracted by incubating each sample in 150 μl of formamide for 18 h at 70° C. The extract was centrifuged (Beckman) at 70,000 rpm (Rotor type: TLA 100.3) for 20 min at 4° C. Absorbance was measured using 100 μl of the supernatant at 620 nm by using Spectrophotometer DU800 (Beckman). The concentration of Evans blue in the extract was calculated from a standard curve of Evans blue in formamide and normalized by the total protein concentration in each sample. Results were expressed in mg of Evans blue per mg of total protein content.
Diabetes was induced by injection of STZ (50 mg/kg, i.v.) into adult BN rats after overnight fasting. Blood glucose levels were monitored at the second day after the injection and once a week thereafter. Rats with glucose levels above 350 mg/dl were considered as diabetic and used for the study. thalidomide, Compounds 1, 2 and 4 were separately injected into the vitreous space (5 μl, 0.8 mM in BN rat serum) of the right eye of STZ-diabetic rats 2 wks after the induction of diabetes. At 48 h after the injection, retinal vascular leakage was measured using the Evans blue-albumin leakage method.
To determine the dose-response relationship of the effect of Compound 4 and thalidomide, the STZ-diabetic rats received an intravitreal injection of Compound 4 and thalidomide with doses of 0.5, 0.75 and 1.0 μg/eye (5 μl/eye of 0.10, 0.15 and 0.20 mg/ml), respectively.

[3] = tested on: CAM blood vessel formation induced by VEGF/bFGF; assay: Chicken chorioallantoic membrane (CAM) assay; assay type: in vivo; conditions: 200 ng VEGF-165/bFGF, 48 hr
Method: Chicken chorioallantoic membrane (CAM) assay: The fertile Leghorn chicken eggs were incubated in a humidified environment at 37.5° C. for 10 days. […] Anti-angiogenic compounds were then added 8 hr after the VEGF/bFGF at saturation to the same microbial testing disk, and the embryos were incubated for an additional 40 h. CAMs were then removed, quickly fixed with 4% paraformaldehyde in PBS, placed onto Petri dishes, and digitized images taken at 7.5× using a Nikon dissecting microscope and Scion Imaging system. A 1×1-cm grid was then added to the digital CAM images and the average number of vessels within 5-7 grids counted as a measure of vascularity.
CAM assay was used for in vivo anti-angiogenic studies. The fertile leghorn chicken eggs were allowed to incubate in a humidified environment at 37.5° C. for 10 days. […] Anti-angiogenic compounds were then added 8 hours after the VEGF/bFGF at saturation to the same microbial testing disk and embryos allowed to incubate for an additional 40 hours. After 48 hr, CAMs were removed, quickly fixed with 4% paraformaldehyde in PBS, placed onto Petri dishes, and digitized images taken at 7.5× using a Nikon dissecting microscope and Scion Imaging system. A 1×1-cm grid was then added to the digital CAM images and the average number of vessels within 5-7 grids counted as a measure of vascularity.
FIG. 14 is a table comparing the effect of Compound 4 on blood vessel formation. […] Data represent mean±SD of 8-16 samples from 2-3 separate experiments.

Compound | IC50 (BRCEC) [µM] | IC50 (HUVEC [1]) [µM] | IC50 (HUVEC [2]) [µM] | reduction of retinal vascular leakage vs vehicle control (STZ-diabetic rats) [%] | ED50, dose reducing blood vessel number to 50% of VEGF/bFGF alone group [3] [μg/embryo]
CC(C)c1cccc(C(C)C)c1N1C(=O)c2ccccc2C1=O [Compound 2, (2,6-diisopropylphenyl)-1H-isoindole-1,3-dione] | 3.56 | 3 |  |  | 
CC(C)c1cccc(C(C)C)c1N1C(=O)c2ccc(O)cc2C1=O [Compound 1] | 1.94 | 3.3 | 1 | 61 | 
Cc1cc(C)c(/C=C2\C(=O)Nc3ccccc32)[nH]1 [SU5416] |  |  |  |  | 7.8
Nc1cccc2c1CN(C1CCC(=O)NC1=O)C2=O (stereo not drawn) [Revimid] |  | > 100 |  |  | 
Nc1cccc2c1C(=O)N(C1CCC(=O)NC1=O)C2=O (stereo not drawn) [Actimid] |  | > 100 |  |  | 

From patent US20100247659A1, “PHENYLPHTHALIMIDE ANALOGS FOR TREATING DIABETIC MACULAR EDEMA” (Charlesson, LLC, priority 2007, published 2010)
